Experiments:
Type in all cases: cell-based
LEXF CCRFCEM = assay: Clonogenic assay, LEXF CCRFCEM; settings: Homo sapiens, CCRF-CEM, Leukemia, ALL, T lymphoblast, soft agar, read-out: IC50 (colony formation)
Experimental: (§1) The anticancer activity of (R)-2-amino-7-[2-(6-methoxy-pyridin-2-yl)-phenyl]-4-methyl-7,8-dihydro-6H-pyrido[4,3-d]pyrimidin-5-one is evaluated in 30 human tumor xenografts in vitro using a clonogenic assay. In this assay, human cells derived from cancer patients are evaluated for the capacity of (R)-2-amino-7-[2-(6-methoxy-pyridin-2-yl)-phenyl]-4-methyl-7,8-dihydro-6H-pyrido[4,3-d]pyrimidin-5-one to inhibit the formation of 3 dimensional colonies. […] The tumor xenografts which have never been cultured in cell culture plastic dishes are isolated from nude mice. Tumor cell suspensions are prepared and incubated in 24 well plates containing layers of soft agar. Under these conditions a special subpopulation of cells selectively grows to colonies. (R)-2-amino-7-[2-(6-methoxy-pyridin-2-yl)-phenyl]-4-methyl-7,8-dihydro-6H-pyrido[4,3-d]pyrimidin-5one is tested in 6 concentrations up to 1000 nM. The tumor test panel comprises 1 to 10 models of 12 different human tumor types, which were bladder cancer, colon, gastric, non small cell lung (adeno, squamous cell, and large cell), small cell lung, mammary, ovary, and prostate cancer, as well as leukemia, lymphoma, melanoma, and sarcoma. Antitumor effects are recorded as inhibition of colony formation in relation to untreated controls. […]

MAXF 1322 = assay: Clonogenic assay, MAXF 1322; settings: Homo sapiens, Breast, Pap. adenocarcinoma, soft agar, read-out: IC50 (colony formation)
Experimental: as §1

MEXF 1341 = assay: Clonogenic assay, MEXF 1341; settings: Homo sapiens, Amelanotic melanoma, soft agar, read-out: IC50 (colony formation)
Experimental: as §1

## COc1cccc(-c2ccccc2[C@H]2Cc3nc(N)nc(C)c3C(=O)N2)n1 [(R)-2-amino-7-[2-(6-methoxy-pyridin-2-yl)-phenyl]-4-methyl-7,8-dihydro-6H-pyrido[4,3-d]pyrimidin-5-one]
LEXF CCRFCEM
  IC50: 27 nM
MAXF 1322
  IC50: 52 nM
MEXF 1341
  IC50: > 1000 nM
